Measured values published in PMC10051560, “Identification and Functional Characterization of General Odorant Binding Proteins in Orthaga achatina” (Insects, 2023).
Like-named read-outs stand apart in the source and are kept apart here.

Columns and labels:
[1] = target: OachGOBP1; assay: Fluorescence competitive binding assay (1-NPN displacement), OachGOBP1; design: species or system Orthaga achatina; conditions: 2 µM protein and 2 µM 1-NPN in 50 mM Tris HCl; for Ki: Ki = [IC50]/(1 + [1-NPN]/K1-NPN), read-out: GOBP1 Ki; for IC50: competitive ligand replacing 50% 1-NPN, read-out: GOBP1 IC50
Description: (§1) A fluorescence competition binding assay was used to test the binding properties of GOBPs to 22 plant volatiles of camphor [22, 23] and 4 sex pheromones of O. achatina. The fluorescence competitive binding assay was conducted on an F-7000 fluorescence spectrophotometer with a 1 cm light path quartz cuvette and 10 nm slits for excitation and emission. The excitation wavelength was 337 nm, and the emission spectrum was recorded between 380 and 460 nm. Firstly, the binding characteristics of 1-NPN to protein were detected. We dissolved 2 µM protein in 50 mM Tris HCl (pH = 7.4), then gradually added 1 mM 1-NPN to make its concentration reach 2, 4, 6, 8, 10, 12, 14, 16 and 20 µM, recorded the fluorescence value, and then calculated the binding constant between 1-NPN and the recombinant protein using the Scatchard equation.
When studying the binding constant between odorant and recombinant protein, 1-NPN was used as a fluorescence reporter. We dissolved 2 µM protein and 2 µM 1-NPN in 50 mM Tris HCl, and then gradually added the ligand. […] In order to determine the binding concentration of protein, the free radical concentration was plotted with the fluorescence intensity of the maximum emission spectrum. It was assumed that the protein activity was 100% and the binding ratio of protein to ligand was 1:1 in the saturated state. The curve was linearized by the Scatchard method. […] The calculation formula was: Ki = [IC50]/(1 + [1-NPN]/K1-NPN), where [1-NPN] is the concentration of unbound 1-NPN and K1-NPN is the dissociation concentration of protein/1-NPN complex.

[2] = target: T1, OachGOBP2 (Orthaga achatina, UniProt H6UEU3); assay: Fluorescence competitive binding assay (1-NPN displacement), OachGOBP2; conditions: for Ki: Ki = [IC50]/(1 + [1-NPN]/K1-NPN), read-out: GOBP2 Ki; for binding to GOBP2 (in words): fluorescence competitive binding
Description: as §1
When studying the binding constant between odorant and recombinant protein, 1-NPN was used as a fluorescence reporter. We dissolved 2 µM protein and 2 µM 1-NPN in 50 mM Tris HCl, and then gradually added the ligand. All the ligands were diluted in methanol (AR, content greater than 99.5%). The concentration of pheromone component was 0.5–10 µM and the concentration of plant volatile was 1–32 µM. In order to determine the binding concentration of protein, the free radical concentration was plotted with the fluorescence intensity of the maximum emission spectrum. It was assumed that the protein activity was 100% and the binding ratio of protein to ligand was 1:1 in the saturated state. The curve was linearized by the Scatchard method. Then, the concentration of competitive binding ligand was calculated according to the IC50 value (the concentration when competitive ligand can replace 50% 1-NPN). The calculation formula was: Ki = [IC50]/(1 + [1-NPN]/K1-NPN), where [1-NPN] is the concentration of unbound 1-NPN and K1-NPN is the dissociation concentration of protein/1-NPN complex.

[3] = target: T1, OachGOBP2; assay: Binding of fluorescent probe 1-NPN to OachGOBP2 (Scatchard); conditions: 2 µM protein in 50 mM Tris HCl pH 7.4, Scatchard; read-out: dissociation constant (K1-NPN) to OachGOBP2
Description: as §1

[4] = target: OachGOBP1; assay: Binding of fluorescent probe 1-NPN to OachGOBP1 (Scatchard); design: species or system Orthaga achatina; conditions: 2 µM protein in 50 mM Tris HCl pH 7.4, Scatchard; read-out: dissociation constant (K1-NPN) to OachGOBP1
Description: as §1

[5] = 2 µM protein and 2 µM 1-NPN in 50 mM Tris HCl
[6] = competitive ligand replacing 50% 1-NPN, 2 µM protein and 2 µM 1-NPN in 50 mM Tris HCl, read-out: GOBP2 IC50

T1 sequence (H6UEU3 entry or part of it): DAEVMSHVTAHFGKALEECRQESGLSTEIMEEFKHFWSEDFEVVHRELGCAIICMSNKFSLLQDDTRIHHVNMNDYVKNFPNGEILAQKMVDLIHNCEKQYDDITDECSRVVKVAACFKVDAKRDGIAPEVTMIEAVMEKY

| Compound | Ki [1] | IC50 [1] | Ki [2, 5] | IC50 [2, 6] | Kd [3] | Kd [4] | binding to GOBP2 (in words) [2] | IC50 [2] | binding capacity class to OachGOBP2 (sex pheromones) ([2]; class by Ki, sex pheromones) |
| --- | --- | --- | --- | --- | --- | --- | --- | --- | --- |
| CCCCCCO [1-Hexanol] | > 30 µM | > 32 µM | > 30 µM | > 32 µM |  |  |  |  |  |
| c1ccc(Nc2cccc3ccccc23)cc1 [1-NPN] |  |  |  |  | 4.91 µM | 9.95 µM |  |  |  |
| C=C1C2CCC(C2)C1(C)C (stereo not shown) [Camphene] | > 30 µM | > 32 µM | > 30 µM | > 32 µM |  |  | did not bind |  |  |
| CC12CCC(CC1=O)C2(C)C (stereo not shown) [Camphor] | > 30 µM | > 32 µM | 17.5 µM | 20.7 µM |  |  |  |  |  |
| O=C/C=C/c1ccccc1 [Cinnamaldehyde] | > 30 µM | > 32 µM |  |  |  |  |  | > 32 µM |  |
| CCC/C=C/C=O [E2-Hexenal] | > 30 µM | > 32 µM | > 30 µM | > 32 µM |  |  |  |  |  |
| CC12CCC(CC1)C(C)(C)O2 [Eucalyptol] | > 30 µM | > 32 µM | > 30 µM | > 32 µM |  |  |  |  |  |
| CC(C)=CCC/C(C)=C/CC/C(C)=C/CO [Farnesol] | 9.49 µM | 10.9 µM | 7.33 µM | 8.68 µM |  |  |  |  |  |
| CC(C)=CCC/C(C)=C/CO [Geraniol] | > 30 µM | > 32 µM |  |  |  |  |  | > 32 µM |  |
| O=CCCCC=O [Glutaraldehyde] | > 30 µM | > 32 µM |  |  |  |  |  | > 32 µM |  |
| CCCCCCOC(C)=O [Hexyl acetate] | > 30 µM | > 32 µM | > 30 µM | > 32 µM |  |  |  |  |  |
| C=C(C)[C@H]1CC=C(C)CC1 [Limonene] | > 30 µM | > 32 µM | > 30 µM | > 32 µM |  |  |  |  |  |
| C=CC(C)(O)CCC=C(C)C (stereo not shown) [Linalool] | > 30 µM | > 32 µM |  |  |  |  |  | 13.9 µM |  |
| C=CC(C)=CCC=C(C)C [Ocimene] | > 30 µM | > 32 µM | > 30 µM | > 32 µM |  |  |  |  |  |
| CC/C=C\C/C=C\C/C=C\C/C=C\C/C=C\CCCCCCC [Z3, Z6, Z9,Z12,Z15–23: H] | > 30 µM | > 32 µM | > 30 µM | > 32 µM |  |  |  |  |  |
| CC/C=C\CCO [Z3-Hexen-1-ol] | > 30 µM | > 32 µM | 18.2 µM | 21.4 µM |  |  |  |  |  |
| CC/C=C\CC=O [Z3-Hexenal] | > 30 µM | > 32 µM | > 30 µM | > 32 µM |  |  | did not bind |  |  |
| CC/C=C\CCOC(C)=O [Z3-Hexenyl acetate] | > 30 µM | > 32 µM | 14.3 µM | 16.8 µM |  |  |  |  |  |
| CCCC/C=C\CCCCCCCCCC=O [Z11-16: Ald] | > 30 µM | > 32 µM |  | > 32 µM |  |  |  |  |  |
| CCCC/C=C\CCCCCCCCCCOC(C)=O [Z11-16: OAc] | > 30 µM | > 32 µM | 2.84 µM | 3.3 µM |  |  |  |  | moderate (2 μM < Ki < 5 μM indicates moderate binding affinity) |
| CCCC/C=C\CCCCCCCCCCO [Z11-16: OH] | 1.57 µM | 1.79 µM | 3.3 µM | 3.86 µM |  |  |  |  |  |
| C=C/C(C)=C/C/C=C(\C)CCC=C(C)C [α-Farnesene] | > 30 µM | > 32 µM | 13.4 µM | 15.9 µM |  |  |  |  |  |
| CC(=O)/C=C/C1C(C)=CCCC1(C)C (stereo not drawn) [α-Ionone] | > 30 µM | > 32 µM |  |  |  |  |  | > 32 µM |  |
| CC1=CC[C@H](C(C)C)C=C1 [α-Phellandrene] | > 30 µM | > 32 µM |  |  |  |  |  | 10.2 µM |  |
| C=CC(=C)CC/C=C(\C)CCC=C(C)C [β-Farnesene] | > 30 µM | > 32 µM | > 30 µM | > 32 µM |  |  |  |  |  |
| CC(=O)/C=C/C1=C(C)CCCC1(C)C [β-Ionone] | > 30 µM | > 32 µM |  |  |  |  |  | 17.8 µM |  |
| C=C1CCC2CC1C2(C)C (stereo not drawn) [β-Pinene] | > 30 µM | > 32 µM |  |  |  |  |  | > 32 µM |  |
